The structures appear in SMILES notation.

From patent US6410790B1, “3-amin3-arylpropan-1-ol compounds, their preparation and use” (priority 1999, dated 2002) come the findings set out here.

One data set addresses T1, NA transporter (Rattus norvegicus, UniProt Q63380).
T1 construct: synaptosomes are isolated fresh from rat brains; from tissue; host or cells: rat hypothalamus synaptosomes (P2 fraction)
Description: synaptosomal noradrenaline uptake inhibition (NA uptake inhibition). In kind it is biochemical. The following applies: read-out: NA Uptake Inhibition at 1 μM, 1 μM in the assay, synaptosomes from rat hypothalamus. Summed up: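 IC50 values converted to Ki via Cheng-Prusoff; Km by Lineweaver-Burk. N=4 independent series, each in triplicate, mean ± SEM.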

For data set [1], the system named is benzothiazepine binding site of the L-type calcium channel. Description: Diltiazem binding, L calcium channel. Set-up: species or system rat. The following applies: 10 μM, percentage inhibition, [3H]-cis-(+)-diltiazem 5 nM, rat cerebral cortex membranes. Summed up:
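Rat cerebral cortex membranes incubated with [^3H]-cis-(+)-diltiazem (5 nM) for 20 min at 25° C; nonspecific binding defined with (±)-diltiazem (10^−6 M). Bound ligand collected by GF/B filtration and counted; IC50 values converted to Ki by Cheng-Prusoff.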

For data set [2], the system named is binding site 2 of the sodium channel. Description: BTX binding, sodium channel. Conditions: 10 μM, percentage inhibition, [3H]-batrachotoxin A20 α-benzoate 10 nM, rat cerebral cortex synaptosomes. Summed up:
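Rat cerebral cortex synaptosomes incubated with 10 nM [^3H]-batrachotoxin A20 α-benzoate at 37° C for 120 min; non-specific binding defined with 0.3 mM veratridine. IC50 values converted to Ki via Cheng-Prusoff; means±SEM of 3 independent series run in triplicate.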

For data set [3], the system named is phenylalkylamine binding site of the L-type calcium channel. Description: Verapamil binding, L calcium channel. The following applies: 10 μM, percentage inhibition, N-methyl-[3H]-verapamil 2 nM. As to the method: Binding Investigations in the L Calcium Channel
Phenylalkylamine Binding Site (Verapamil Binding)
The biological material (ion channel particles) was prepared on the basis of the publication of Reynolds, Gould and Snyder (I. J. Reynolds, R. J. Gould and S. H. Snyder (1983) […]. 95, 319-321).
N-methyl-[^3H]-verapamil (2 nM in the assay) was used as radioligand. The radioactivity that is measured in the presence of non-radioactive verapamil (10^−4 M in the assay) is defined as non-specific binding. The material was incubated at 25° C. for 45 minutes. The material was then filtered using a Whatman GF/B filter, followed by washing. The radioactivity remaining on the filter (ion channel binding) was measured using a β-counter.
For this purpose IC50 values are obtained, which can be converted to inhibitor constants (Ki) according to the “Cheng-Prusoff equation” (Y. C. Clieng and W. H. Prusoff (1973) Biochem. Pharmacol. 22, 3099-3108). The IC50 values were obtained by means of the computer program “Figure P” (version 6.0, Biosoft, Cambridge, England). Km values were calculated according to Lineweaver and Burk (H. Lineweaver and D. Burk (1934) J. Am. Chem. Soc. 56, 658-666). The “Ligand” computer program (version 4, Biosoft, England) was used to obtain Ken values.

Data set [4] concerns phenylquinone-induced writhing reaction. Description: phenylquinone-induced writhing test in mice. The data set is classed as in vivo. Conditions: Mus musculus, iv, 10 min, male NMRI mice, 10 mg/kg intravenously, phenylquinone i.p. 10 minutes later. Summed up: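 Male NMRI mice (25–30 g, n=10/group) received test substance i.v. at 10 mg/kg, then 0.02% phenylquinone i.p. 10 min later. Writhing reactions were counted 5–20 min after phenylquinone; % inhibition is relative to saline-treated controls.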
A general note: Writhing tests count abdominal constrictions after an irritant is injected.

T1 sequence (Q63380 1-617): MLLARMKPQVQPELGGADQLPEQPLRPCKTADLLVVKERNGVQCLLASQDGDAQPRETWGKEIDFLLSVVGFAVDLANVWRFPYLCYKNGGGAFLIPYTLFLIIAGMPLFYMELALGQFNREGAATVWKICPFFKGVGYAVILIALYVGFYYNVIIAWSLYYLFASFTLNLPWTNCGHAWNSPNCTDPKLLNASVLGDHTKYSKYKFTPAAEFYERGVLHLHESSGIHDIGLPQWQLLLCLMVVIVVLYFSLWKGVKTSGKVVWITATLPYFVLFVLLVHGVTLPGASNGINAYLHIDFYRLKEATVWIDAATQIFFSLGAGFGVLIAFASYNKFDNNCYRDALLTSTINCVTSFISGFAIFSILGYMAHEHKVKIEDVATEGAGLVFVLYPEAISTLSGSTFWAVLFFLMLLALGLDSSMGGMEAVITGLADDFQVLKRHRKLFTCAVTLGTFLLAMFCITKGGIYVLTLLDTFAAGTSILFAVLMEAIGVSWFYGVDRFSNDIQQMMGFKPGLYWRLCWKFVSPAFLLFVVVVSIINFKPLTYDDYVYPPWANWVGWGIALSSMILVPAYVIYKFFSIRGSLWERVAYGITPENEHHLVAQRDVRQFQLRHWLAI

One may read the inhibition as the change of the read-out against control, counted positive when it falls. What is called inhibition in vivo is the share of the control response that was lost under treatment. A low value points to a weak effect. Broadly, the melting point is the temperature, or range, at which the solid turns liquid. Turning to `Cc1ccc(C2(O)CCCCC2C(c2ccccc2)N(C)C)cc1.Cl` (stereo not shown) [Example 8, 2-(dimethylaminophenylmethyl)-1-p-tolylcyclohexanol, hydrochloride], the melting point lay within 168 to 169 °C. Besides, on NA transporter, the inhibition at 1 µM was determined as 50%. In addition, the “Diltiazem Binding at 10 μM” value in data set [1] was found to be 68%. For the same compound, the “BTX Binding at 10 μM” value in data set [2] was determined as 88%. In addition, in data set [3], the “Verapamil Binding at 10 μM” value is listed as 56%. In addition, 10 mg/kg produced 81% inhibition in vivo in data set [4].
In the case of `CN(C)C(c1ccccc1)C1CCCCC1(O)Cc1ccc(C(C)(C)C)cc1.Cl` (stereo not shown) [Example 28, 1-(4-tert.-butylbenzyl)-2-(dimethylaminophenylmethyl)cyclohexanol, hydrochloride], the melting point lay in the range of 227 to 229 °C. The inhibition at 1 µM at NA transporter amounted to 63%. The “Diltiazem Binding at 10 μM” value in data set [1] came to 89%. Besides, the “BTX Binding at 10 μM” value in data set [2] is recorded as 100%. In addition, in data set [4], at 10 mg/kg the inhibition in vivo was 100%.
With `CN(C)C(c1ccccc1)C1CCCCC1(O)Cc1cccc(F)c1.Cl` (stereo not shown) [Example 29, 2-(dimethylaminophenylmethyl)-1-(3-fluorobenzyl)cyclohexanol, hydrochloride], the melting point was in the range of 146 to 147 °C. Moreover, at NA transporter, the inhibition at 1 µM was 96%. Besides, in data set [1], the “Diltiazem Binding at 10 μM” value is on record as 72%. Also, the “BTX Binding at 10 μM” value in data set [2] stood at 88%. In data set [4], the inhibition in vivo at 10 mg/kg was 96%.
`CN(C)C(c1ccccc1)C1CCCCC1(O)c1ccc(F)c(C(F)(F)F)c1.Cl` (stereo not shown) [Example 15, 2-(dimethylaminophenylmethyl)-1-(4-fluoro-3-trifluoromethylphenyl)cyclohexanol, hydrochloride] displayed a melting point of 234 to 237 °C. The inhibition at 1 µM at NA transporter was found to be 44%. In addition, the “Diltiazem Binding at 10 μM” value in data set [1] was determined as 97%. Further, the “BTX Binding at 10 μM” value in data set [2] stood at 94%. Moreover, the “Verapamil Binding at 10 μM” value in data set [3] was 87%. In addition, the inhibition in vivo at 10 mg/kg in data set [4] is 73%.
For the compound `CN(C)C(c1ccccc1)C1CCCCC1(O)Cc1ccccc1.Cl` (stereo not shown) [Example 14, 1-benzyl-2-(dimethylaminophenylmethyl)cyclohexanol, hydrochloride], the melting point is 223 to 225 °C. In addition, the inhibition at 1 µM on NA transporter was determined as 100%. In data set [1], the “Diltiazem Binding at 10 μM” value is given as 88%. Further, in data set [2], the “BTX Binding at 10 μM” value was 89%. The compound further had an inhibition in vivo at 10 mg/kg in data set [4] of 70%.
Take `COc1cccc(CC2(O)CCCCC2C(c2ccc(C(F)(F)F)cc2)N(C)C)c1.Cl` (stereo not shown) [Example 22, 2-[dimethylamino-(4-trifluoromethylphenyl)methyl]-1-(3-methoxybenzyl)cyclohexanol, hydrochloride]: the inhibition at 1 µM on NA transporter was determined as 91%. Also, the “Diltiazem Binding at 10 μM” value in data set [1] came to 72%. Also, the “BTX Binding at 10 μM” value in data set [2] is recorded as 98%. In addition, the “Verapamil Binding at 10 μM” value in data set [3] was 80%. For the same compound, the inhibition in vivo at 10 mg/kg in data set [4] was 68%.
The matching figures for `CN(C)C(c1ccccc1)C1CCCCC1(O)c1ccc2ccccc2c1.Cl` (stereo not shown) [Example 21, 2-(dimethylaminophenylmethyl)-1-naphthalene-2-ylcyclohexanol, hydrochloride]: 17%, 85%, 94%, 71% and 97%.
